Source: patent publication US12673975B2, “Cyclic peptide, cell scaffold material, cell separating material, and medium” (FUJIFILM Corporation, priority 2019, dated 2026)
Starred links: 1 amine or outer side, 2 acyl side, 3 side chain; linkers in the order of their positions; H or OH if unused. Positions of bridges follow the written chain, without caps; N, C: chain ends. Non-standard residues stand in square brackets, D forms with d. Residues, ends and D or L forms follow the SMILES beside them. hCys = N[C@@H](CCS)C(=O)O; Dab = NCC[C@H](N)C(=O)O; X2 = O=C(C[*:1])[*:2]

Tests used:
[1] = Evaluation of molecule stability (alkali treatment, residual rate by LC/MS); assay type: physicochemical; details: 500 μM peptide aqueous solution plus equivalent of 1 M sodium hydroxide, 15° C., 3 hours, LC/MS peak area
How it was run: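 500 μM aqueous cyclic peptide mixed with an equal volume of 1 M NaOH and held 3 h at 15 °C. Residual rate is total LC/MS peak area after treatment relative to untreated (100%), using a C18 column, pH 3 ammonium formate/acetonitrile gradient, 45 °C, ESI±.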

human integrin αvβ5 = human integrin αvβ5 (Homo sapiens, UniProt P06756+P18084); test: Evaluation of integrin binding property (surface plasmon resonance, Biacore 3000, immobilized cyclic peptide); details: SPR, 25° C., HEPES buffer with 5 mM magnesium chloride, integrin 30-1,000 nM; read-out: Performance evaluation: Binding activity (dissociation constant between the cyclic peptide and human integrin αvβ5)
human integrin αvβ5, sequence (P06756 31-1048): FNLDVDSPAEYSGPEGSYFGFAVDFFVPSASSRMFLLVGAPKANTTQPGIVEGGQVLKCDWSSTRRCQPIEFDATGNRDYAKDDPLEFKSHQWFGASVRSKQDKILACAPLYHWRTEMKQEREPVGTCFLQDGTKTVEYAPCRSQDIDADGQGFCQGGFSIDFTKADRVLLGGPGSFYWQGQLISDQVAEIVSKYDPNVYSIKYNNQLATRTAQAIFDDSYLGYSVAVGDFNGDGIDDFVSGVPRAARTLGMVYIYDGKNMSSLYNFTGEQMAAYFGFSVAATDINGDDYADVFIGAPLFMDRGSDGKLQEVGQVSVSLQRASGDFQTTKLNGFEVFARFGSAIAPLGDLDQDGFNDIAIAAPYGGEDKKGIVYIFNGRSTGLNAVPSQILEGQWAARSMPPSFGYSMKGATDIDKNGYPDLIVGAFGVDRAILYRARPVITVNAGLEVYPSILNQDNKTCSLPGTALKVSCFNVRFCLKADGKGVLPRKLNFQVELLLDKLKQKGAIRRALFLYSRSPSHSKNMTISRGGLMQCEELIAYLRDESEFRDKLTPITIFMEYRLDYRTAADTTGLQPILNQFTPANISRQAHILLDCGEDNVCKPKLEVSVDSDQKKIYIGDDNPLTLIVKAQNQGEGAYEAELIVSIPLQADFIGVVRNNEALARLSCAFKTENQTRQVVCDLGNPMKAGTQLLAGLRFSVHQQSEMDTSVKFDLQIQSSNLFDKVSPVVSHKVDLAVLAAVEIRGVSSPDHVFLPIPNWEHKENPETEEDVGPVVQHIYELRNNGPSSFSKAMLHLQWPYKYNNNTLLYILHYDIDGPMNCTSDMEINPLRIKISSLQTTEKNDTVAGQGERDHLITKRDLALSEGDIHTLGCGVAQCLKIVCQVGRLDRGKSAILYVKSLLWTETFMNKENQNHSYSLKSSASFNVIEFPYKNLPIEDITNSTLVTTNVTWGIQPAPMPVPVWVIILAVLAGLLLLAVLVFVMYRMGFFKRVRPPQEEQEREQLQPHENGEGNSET
human integrin αvβ5, sequence (P18084 24-799): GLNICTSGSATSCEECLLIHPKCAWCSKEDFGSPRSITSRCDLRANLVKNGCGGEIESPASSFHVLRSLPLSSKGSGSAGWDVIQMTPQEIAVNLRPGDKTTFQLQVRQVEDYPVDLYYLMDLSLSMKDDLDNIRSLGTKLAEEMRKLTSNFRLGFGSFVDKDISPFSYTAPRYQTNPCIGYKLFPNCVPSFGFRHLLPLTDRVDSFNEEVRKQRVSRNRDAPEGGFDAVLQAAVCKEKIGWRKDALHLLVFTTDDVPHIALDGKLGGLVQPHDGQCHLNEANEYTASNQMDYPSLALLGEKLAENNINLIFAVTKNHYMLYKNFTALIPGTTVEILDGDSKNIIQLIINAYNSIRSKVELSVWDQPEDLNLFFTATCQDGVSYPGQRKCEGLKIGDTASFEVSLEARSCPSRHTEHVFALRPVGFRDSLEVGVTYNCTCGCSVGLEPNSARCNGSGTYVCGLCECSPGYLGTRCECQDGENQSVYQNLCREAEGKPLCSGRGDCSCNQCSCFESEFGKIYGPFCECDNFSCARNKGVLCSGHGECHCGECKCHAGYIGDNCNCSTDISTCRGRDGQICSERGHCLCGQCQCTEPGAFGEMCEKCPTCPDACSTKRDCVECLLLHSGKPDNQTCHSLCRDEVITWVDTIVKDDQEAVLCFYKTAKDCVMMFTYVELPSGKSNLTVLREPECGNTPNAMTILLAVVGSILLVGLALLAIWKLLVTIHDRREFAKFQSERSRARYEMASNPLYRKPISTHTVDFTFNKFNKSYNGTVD
How it was run: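 SPR with cyclic peptide amine-coupled via EDC/NHS to a CM5 chip, blank channel as reference. Integrin αvβ5 at 30, 100, 300 and 1,000 nM injected 10 min at 25 °C in HEPES buffer pH 7.4 with 5 mM MgCl2, 30 min buffer flow, EDTA regeneration; Kd from reference-subtracted signals, graded by category.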

Structure (SMILES)	Performance evaluation: Stability (residual rate of cyclic peptide after alkali treatment) [1]	Kd (human integrin αvβ5) [nM]
CC[C@H](C)[C@@H]1NC(=O)[C@@H](NC(=O)CNC(=O)[C@H](CCCCN)NC(=O)[C@H](CCCCN)NC(=O)[C@@H](N)CCCCN)CCSCC(=O)NCC[C@@H](C(=O)N[C@@H](C)C(=O)O)NC(=O)[C@H](CCCNC(=N)N)NC(=O)[C@H](Cc2ccccc2)NC(=O)[C@H]([C@@H](C)O)NC(=O)[C@H](CC(=O)O)NC(=O)CNC(=O)[C@H](CCCNC(=N)N)NC(=O)[C@@H]2CCCN2C1=O [Cyclic peptide 54, KKKG-(Hcy)-IPRGDTFR(Dab(acetyl))A] (H-KKKG[hCys]IPRGDTFR[Dab]A-OH; linker 5-14 via X2)	A (The residual rate of the cyclic peptide is 70% or more.)	< 50
CC[C@H](C)[C@@H]1NC(=O)[C@@H](NC(=O)CNC(=O)[C@H](CCCCN)NC(=O)[C@H](CCCCN)NC(=O)[C@@H](N)CCCCN)CCSCC(=O)NCC[C@@H](C(=O)NCC(=O)O)NC(=O)[C@H](CCCNC(=N)N)NC(=O)[C@H](Cc2ccccc2)NC(=O)[C@H]([C@@H](C)O)NC(=O)[C@H](CC(=O)O)NC(=O)CNC(=O)[C@H](CCCNC(=N)N)NC(=O)[C@@H]2CCCN2C1=O [Cyclic peptide 55, KKKG-(Hcy)-IPRGDTFR(Dab(acetyl))G] (H-KKKG[hCys]IPRGDTFR[Dab]G-OH; linker 5-14 via X2)	A (The residual rate of the cyclic peptide is 70% or more.)	< 50
CC[C@H](C)[C@@H]1NC(=O)[C@@H](NC(=O)[C@H](C)NC(=O)[C@H](CCCCN)NC(=O)[C@H](CCCCN)NC(=O)[C@@H](N)CCCCN)CCSCC(=O)NCC[C@@H](C(=O)N[C@@H](C)C(=O)O)NC(=O)[C@H](CCCNC(=N)N)NC(=O)[C@H](Cc2ccccc2)NC(=O)[C@H]([C@@H](C)O)NC(=O)[C@H](CC(=O)O)NC(=O)CNC(=O)[C@H](CCCNC(=N)N)NC(=O)[C@@H]2CCCN2C1=O [Cyclic peptide 56, KKKA-(Hcy)-IPRGDTFR(Dab(acetyl))A] (H-KKKA[hCys]IPRGDTFR[Dab]A-OH; linker 5-14 via X2)	A (The residual rate of the cyclic peptide is 70% or more.)	< 50
CC[C@H](C)[C@@H]1NC(=O)[C@@H](NC(=O)[C@H](CCCCN)NC(=O)[C@H](CCCCN)NC(=O)[C@@H](N)CCCCN)CCSCC(=O)NCC[C@@H](C(=O)N[C@@H](C)C(=O)O)NC(=O)[C@H](CCCNC(=N)N)NC(=O)[C@H](Cc2ccccc2)NC(=O)[C@H]([C@@H](C)O)NC(=O)[C@H](CC(=O)O)NC(=O)CNC(=O)[C@H](CCCNC(=N)N)NC(=O)[C@@H]2CCCN2C1=O [Cyclic peptide 57, KKK-(Hcy)-IPRGDTFR(Dab(acetyl))A] (H-KKK[hCys]IPRGDTFR[Dab]A-OH; linker 4-13 via X2)	A (The residual rate of the cyclic peptide is 70% or more.)	< 50
CC[C@H](C)[C@@H]1NC(=O)[C@@H](NC(=O)CNC(=O)[C@H](CCCCN)NC(=O)[C@H](CCCCN)NC(=O)[C@@H](N)CCCCN)CCSCC(=O)NCC[C@@H](C(=O)N[C@@H](C)C(=O)O)NC(=O)[C@H](Cc2ccccc2)NC(=O)[C@H]([C@@H](C)O)NC(=O)[C@H](CC(=O)O)NC(=O)CNC(=O)[C@H](CCCNC(=N)N)NC(=O)[C@@H]2CCCN2C1=O [Cyclic peptide 58, KKKG-(Hcy)-IPRGDTF(Dab(acetyl))A] (H-KKKG[hCys]IPRGDTF[Dab]A-OH; linker 5-13 via X2)	A (The residual rate of the cyclic peptide is 70% or more.)	< 50
CC[C@H](C)[C@@H]1NC(=O)[C@@H](NC(=O)CNC(=O)[C@H](CCCCN)NC(=O)[C@H](CCCCN)NC(=O)[C@@H](N)CCCCN)CCSCC(=O)NCC[C@@H](C(=O)O)NC(=O)[C@H](CCCNC(=N)N)NC(=O)[C@H](Cc2ccccc2)NC(=O)[C@H]([C@@H](C)O)NC(=O)[C@H](CC(=O)O)NC(=O)CNC(=O)[C@H](CCCNC(=N)N)NC(=O)[C@@H]2CCCN2C1=O [Cyclic peptide 59, KKKG-(Hcy)-IPRGDTFR(Dab(acetyl))] (H-KKKG[hCys]IPRGDTFR[Dab]-OH; linker 5-14 via X2)	A (The residual rate of the cyclic peptide is 70% or more.)	< 50
CC[C@H](C)[C@@H]1NC(=O)[C@@H](NC(=O)[C@H](CCCCN)NC(=O)[C@H](CCCCN)NC(=O)[C@@H](N)CCCCN)CCSCC(=O)NCC[C@@H](C(=O)N[C@@H](C)C(=O)O)NC(=O)[C@H](Cc2ccccc2)NC(=O)[C@H]([C@@H](C)O)NC(=O)[C@H](CC(=O)O)NC(=O)CNC(=O)[C@H](CCCNC(=N)N)NC(=O)[C@@H]2CCCN2C1=O [Cyclic peptide 60, KKK-(Hcy)-IPRGDTF(Dab(acetyl))A] (H-KKK[hCys]IPRGDTF[Dab]A-OH; linker 4-12 via X2)	A (The residual rate of the cyclic peptide is 70% or more.)	< 50
CC[C@H](C)[C@@H]1NC(=O)[C@@H](NC(=O)[C@H](CCCCN)NC(=O)[C@H](CCCCN)NC(=O)[C@@H](N)CCCCN)CCSCC(=O)NCC[C@@H](C(=O)O)NC(=O)[C@H](CCCNC(=N)N)NC(=O)[C@H](Cc2ccccc2)NC(=O)[C@H]([C@@H](C)O)NC(=O)[C@H](CC(=O)O)NC(=O)CNC(=O)[C@H](CCCNC(=N)N)NC(=O)[C@@H]2CCCN2C1=O [Cyclic peptide 61, KKK-(Hcy)-IPRGDTFR(Dab(acetyl))] (H-KKK[hCys]IPRGDTFR[Dab]-OH; linker 4-13 via X2)	A (The residual rate of the cyclic peptide is 70% or more.)	< 50
CC[C@H](C)[C@@H]1NC(=O)[C@@H](NC(=O)[C@H](CCCCN)NC(=O)[C@H](CCCCN)NC(=O)[C@@H](N)CCCCN)CCSCC(=O)NCC[C@@H](C(=O)O)NC(=O)[C@H](C)NC(=O)[C@H](Cc2ccccc2)NC(=O)[C@H]([C@@H](C)O)NC(=O)[C@H](CC(=O)O)NC(=O)CNC(=O)[C@H](CCCNC(=N)N)NC(=O)[C@@H]2CCCN2C1=O [Cyclic peptide 62, KKK-(Hcy)-IPRGDTFA(Dab(acetyl))] (H-KKK[hCys]IPRGDTFA[Dab]-OH; linker 4-13 via X2)	A (The residual rate of the cyclic peptide is 70% or more.)	< 50
CC[C@H](C)[C@@H]1NC(=O)[C@@H](NC(=O)[C@H](CCCCN)NC(=O)[C@H](CCCCN)NC(=O)[C@@H](N)CCCCN)CCSCC(=O)NCC[C@@H](C(=O)O)NC(=O)[C@H](Cc2ccccc2)NC(=O)[C@H]([C@@H](C)O)NC(=O)[C@H](CC(=O)O)NC(=O)CNC(=O)[C@H](CCCNC(=N)N)NC(=O)[C@@H]2CCCN2C1=O [Cyclic peptide 63, KKK-(Hcy)-IPRGDTF(Dab(acetyl))] (H-KKK[hCys]IPRGDTF[Dab]-OH; linker 4-12 via X2)	A (The residual rate of the cyclic peptide is 70% or more.)	< 50
CC(C)[C@@H]1NC(=O)[C@@H](NC(=O)[C@H](CCCCN)NC(=O)[C@H](CCCCN)NC(=O)[C@@H](N)CCCCN)CCSCC(=O)NCC[C@@H](C(=O)O)NC(=O)[C@H](Cc2ccccc2)NC(=O)[C@H]([C@@H](C)O)NC(=O)[C@H](CC(=O)O)NC(=O)CNC(=O)[C@H](CCCNC(=N)N)NC(=O)[C@@H]2CCCN2C1=O [Cyclic peptide 64, KKK-(Hcy)-VPRGDTF(Dab(acetyl))] (H-KKK[hCys]VPRGDTF[Dab]-OH; linker 4-12 via X2)	A (The residual rate of the cyclic peptide is 70% or more.)	< 50
